Molecular target: NF-κB
Assay: NF-κB-bla THP-1 β-lactamase reporter assay, activation of NF-κB by TNFα or LPS
Assay type: cell-based, human
Details: positive control assays; 1 hour β-lactamase substrate incubation
Excerpt: Reduction of inflammation. Inhibition of NF-κB by 17α-ethynylandrost-5-ene-3β,7β,17β-triol in vitro. A number of compounds were used to inhibit activation of NF-κB by TNF-α or LPS in human cells in vitro. Activation of NF-κB increases expression of a number of genes that mediate inflammation. This protocol used human THP-1 cells, which are human mononuclear blood cells with a monocyte phenotype. The cell line, referred to as NF-κB-bla THP-1, contained a β-lactamase reporter gene under the control of the NF-κB response element (Invitrogen, CellSensor™, product No. K1176). In this cell line, the β-lactamase reporter gene is stably integrated in the THP-1 cells. This cell line was used to detect agonists or antagonists of the NF-κB signaling pathway. These NF-κB-bla THP-1 cells respond to the presence of tumor necrosis factor alpha (TNFα) or bacterial lipopolysaccharide (LPS) by increased expression of the β-lactamase reporter gene. The level of β-lactamase enzyme activity was measured by fluorescence resonance energy transfer ratiometric detection. […]
The NF-κB-bla THP-1 cells were maintained by passaging or feeding as needed. […] The cells were plated at 20,000 cells/well in a 384-well Black-wall, clear bottom assay plates (Costar #3712-TC low fluorescence background plates) approximately 24 hours before adding either TNFα at 10 ng/mL or LPS at 0.2 ng/mL to activate NF-κB. […]

For TNFα, the “EC50 concentration for TNFα, activation of NF-κB” value was 0.20 ng/mL.

Source: US20140010806A1, “Treatment of Ocular Diseases” (priority 2012, published 2014)
